# According to ChEMBL document CHEMBL4014331, “Design and Synthesis of Soluble and Cell-Permeable PI3Kδ Inhibitors for Long-Acting Inhaled Administration” (J Med Chem, 2017):
# How the values were obtained:
# [1] = molecular target: PI3-kinase p110-alpha/p85-alpha (Homo sapiens, UniProt P42336); test: Inhibition of recombinant human His6-tagged PI3K p110alpha/p85alpha using DiC8-PIP2 as substrate preincubated for 15 mins followed by substrate addition measured after 60 mins by ADP-Glo assay; format: protein-complex assay
# [2] = Terminal half life in it dosed rat lung by LC-MS/MS analysis; format: ADME, organism-based; conditions: inhaled or intranasal, read-out: beta t1/2 (converted)
# [3] = Dissociation constant, acidic pKa of compound; format: physicochemical
# [4] = Metabolic stability in it dosed rat lungs assessed as compound remaining at 24 hrs post dose by LC-MS/MS analysis; format: ADME, organism-based; conditions: lung, inhaled or intranasal, read-out: Stability
# [5] = Dissociation constant, basic pKa of compound; format: physicochemical
# [6] = Clearance in iv dosed rat; format: ADME, organism-based; conditions: in vivo
# [7] = Lipophilicity, log D of the compound; format: physicochemical; conditions: octanol/water
# [8] = molecular target: T1, Phosphatidylinositol 4,5-bisphosphate 3-kinase catalytic subunit delta isoform (Homo sapiens, UniProt O00329); test: Inhibition of PI3Kdelta in human JeKo1 cells assessed as reduction in Akt phosphorylation at Ser473 residue preincubated for 60 mins followed by Anti-IgM stimulation for 10 mins by TR-FRET assay; format: cell-based
# T1 sequence (O00329 whole entry): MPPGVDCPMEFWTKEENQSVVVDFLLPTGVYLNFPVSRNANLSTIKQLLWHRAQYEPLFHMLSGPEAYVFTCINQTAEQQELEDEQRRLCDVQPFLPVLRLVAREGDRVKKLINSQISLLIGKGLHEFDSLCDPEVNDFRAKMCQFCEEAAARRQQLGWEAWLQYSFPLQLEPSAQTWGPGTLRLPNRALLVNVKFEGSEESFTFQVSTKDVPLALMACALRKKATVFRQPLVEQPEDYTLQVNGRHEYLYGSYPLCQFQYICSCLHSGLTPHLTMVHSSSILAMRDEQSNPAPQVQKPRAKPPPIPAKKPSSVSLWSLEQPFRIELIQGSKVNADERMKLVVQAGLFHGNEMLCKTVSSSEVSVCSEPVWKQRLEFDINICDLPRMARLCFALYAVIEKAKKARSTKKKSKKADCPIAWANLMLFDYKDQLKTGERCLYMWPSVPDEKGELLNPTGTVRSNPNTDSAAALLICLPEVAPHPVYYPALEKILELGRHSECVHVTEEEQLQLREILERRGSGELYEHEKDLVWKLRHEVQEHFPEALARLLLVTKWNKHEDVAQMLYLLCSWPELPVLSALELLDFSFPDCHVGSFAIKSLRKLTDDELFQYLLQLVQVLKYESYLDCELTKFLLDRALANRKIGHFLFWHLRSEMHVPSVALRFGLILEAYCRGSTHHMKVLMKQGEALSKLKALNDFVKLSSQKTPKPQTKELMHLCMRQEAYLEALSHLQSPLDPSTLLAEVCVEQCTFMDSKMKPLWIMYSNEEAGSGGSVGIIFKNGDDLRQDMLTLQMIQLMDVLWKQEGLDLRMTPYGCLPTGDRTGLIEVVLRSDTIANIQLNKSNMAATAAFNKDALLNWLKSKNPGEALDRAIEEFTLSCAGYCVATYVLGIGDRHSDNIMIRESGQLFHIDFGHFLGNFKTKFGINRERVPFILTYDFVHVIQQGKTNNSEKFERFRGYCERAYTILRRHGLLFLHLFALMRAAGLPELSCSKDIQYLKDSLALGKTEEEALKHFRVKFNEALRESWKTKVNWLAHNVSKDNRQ
# Mus musculus = test: In vivo inhibition of PI3Kdelta in ovalbumin-sensitized OT-2 transgenic C57BL/6-Tg-(Tcratcrb)425Cbn/Crl mouse assessed as reduction in S6RP phosphorylation at Ser235/236 residues in bronchoalveolar lung lavage administered […] 18 hrs prior to anti-CD3 stimulation measured after 6 hrs; format: functional, organism-based
# hERG (KCNH2) = hERG (KCNH2) (Homo sapiens, UniProt Q12809); test: Inhibition of human ERG at 11 uM relative to control
# hERG (KCNH2), sequence (Q12809 whole entry): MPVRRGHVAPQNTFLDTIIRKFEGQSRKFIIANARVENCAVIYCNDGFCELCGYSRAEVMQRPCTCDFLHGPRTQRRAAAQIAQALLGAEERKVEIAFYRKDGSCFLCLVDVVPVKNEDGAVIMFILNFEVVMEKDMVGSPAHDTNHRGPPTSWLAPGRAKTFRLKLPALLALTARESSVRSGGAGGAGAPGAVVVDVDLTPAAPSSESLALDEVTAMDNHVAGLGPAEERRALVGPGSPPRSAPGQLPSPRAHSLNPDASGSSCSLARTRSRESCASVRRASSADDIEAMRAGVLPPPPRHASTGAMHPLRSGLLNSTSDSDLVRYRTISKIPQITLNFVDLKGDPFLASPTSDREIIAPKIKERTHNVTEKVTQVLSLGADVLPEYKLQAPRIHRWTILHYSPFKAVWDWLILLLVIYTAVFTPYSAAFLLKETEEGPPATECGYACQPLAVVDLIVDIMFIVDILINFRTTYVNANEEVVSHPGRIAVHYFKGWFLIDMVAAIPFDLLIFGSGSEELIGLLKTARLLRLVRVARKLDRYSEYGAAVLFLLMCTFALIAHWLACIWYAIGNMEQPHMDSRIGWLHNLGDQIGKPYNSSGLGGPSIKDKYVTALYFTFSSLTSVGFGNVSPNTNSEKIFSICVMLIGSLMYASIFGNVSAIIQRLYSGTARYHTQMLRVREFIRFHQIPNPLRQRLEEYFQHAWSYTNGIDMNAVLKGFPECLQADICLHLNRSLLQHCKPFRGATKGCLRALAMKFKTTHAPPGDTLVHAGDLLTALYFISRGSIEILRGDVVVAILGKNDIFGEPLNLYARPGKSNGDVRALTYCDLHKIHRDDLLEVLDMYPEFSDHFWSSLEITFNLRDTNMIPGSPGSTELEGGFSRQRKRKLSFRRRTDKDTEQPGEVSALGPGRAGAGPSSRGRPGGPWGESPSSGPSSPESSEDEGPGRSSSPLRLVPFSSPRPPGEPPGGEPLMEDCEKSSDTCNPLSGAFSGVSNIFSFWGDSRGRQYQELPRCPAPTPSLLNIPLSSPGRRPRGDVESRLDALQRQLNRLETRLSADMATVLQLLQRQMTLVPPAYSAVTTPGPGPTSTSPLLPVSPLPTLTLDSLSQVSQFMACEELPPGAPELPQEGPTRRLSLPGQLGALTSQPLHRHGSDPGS
# PI3K p110 beta/p85 alpha = PI3K p110 beta/p85 alpha (Homo sapiens, UniProt P42338); test: Inhibition of recombinant human His6-tagged PI3K p110beta/p85alpha using DiC8-PIP2 as substrate preincubated for 15 mins followed by substrate addition measured after 60 mins by ADP-Glo assay; format: protein-complex assay
# PI3K p110 beta/p85 alpha, sequence (P27986 whole entry): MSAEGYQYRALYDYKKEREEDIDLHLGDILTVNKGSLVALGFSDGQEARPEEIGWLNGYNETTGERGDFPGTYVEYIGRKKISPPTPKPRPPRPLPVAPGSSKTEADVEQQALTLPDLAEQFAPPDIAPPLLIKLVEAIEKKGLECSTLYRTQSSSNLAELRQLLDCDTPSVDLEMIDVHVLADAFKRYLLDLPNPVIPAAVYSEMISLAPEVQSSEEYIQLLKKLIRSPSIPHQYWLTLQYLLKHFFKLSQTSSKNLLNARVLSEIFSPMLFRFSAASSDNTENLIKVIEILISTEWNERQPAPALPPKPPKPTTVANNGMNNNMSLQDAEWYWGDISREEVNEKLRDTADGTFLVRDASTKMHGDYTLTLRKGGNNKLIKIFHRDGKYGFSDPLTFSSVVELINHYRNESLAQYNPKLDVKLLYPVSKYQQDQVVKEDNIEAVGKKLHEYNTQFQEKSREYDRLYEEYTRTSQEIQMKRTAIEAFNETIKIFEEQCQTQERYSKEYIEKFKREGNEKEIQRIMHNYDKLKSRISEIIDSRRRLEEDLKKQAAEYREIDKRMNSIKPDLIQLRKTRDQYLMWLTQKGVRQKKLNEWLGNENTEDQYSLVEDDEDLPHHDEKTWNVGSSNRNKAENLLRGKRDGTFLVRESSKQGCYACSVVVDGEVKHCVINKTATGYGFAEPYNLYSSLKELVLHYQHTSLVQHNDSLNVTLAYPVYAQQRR
# PI3K p110 beta/p85 alpha, sequence (P42338 whole entry): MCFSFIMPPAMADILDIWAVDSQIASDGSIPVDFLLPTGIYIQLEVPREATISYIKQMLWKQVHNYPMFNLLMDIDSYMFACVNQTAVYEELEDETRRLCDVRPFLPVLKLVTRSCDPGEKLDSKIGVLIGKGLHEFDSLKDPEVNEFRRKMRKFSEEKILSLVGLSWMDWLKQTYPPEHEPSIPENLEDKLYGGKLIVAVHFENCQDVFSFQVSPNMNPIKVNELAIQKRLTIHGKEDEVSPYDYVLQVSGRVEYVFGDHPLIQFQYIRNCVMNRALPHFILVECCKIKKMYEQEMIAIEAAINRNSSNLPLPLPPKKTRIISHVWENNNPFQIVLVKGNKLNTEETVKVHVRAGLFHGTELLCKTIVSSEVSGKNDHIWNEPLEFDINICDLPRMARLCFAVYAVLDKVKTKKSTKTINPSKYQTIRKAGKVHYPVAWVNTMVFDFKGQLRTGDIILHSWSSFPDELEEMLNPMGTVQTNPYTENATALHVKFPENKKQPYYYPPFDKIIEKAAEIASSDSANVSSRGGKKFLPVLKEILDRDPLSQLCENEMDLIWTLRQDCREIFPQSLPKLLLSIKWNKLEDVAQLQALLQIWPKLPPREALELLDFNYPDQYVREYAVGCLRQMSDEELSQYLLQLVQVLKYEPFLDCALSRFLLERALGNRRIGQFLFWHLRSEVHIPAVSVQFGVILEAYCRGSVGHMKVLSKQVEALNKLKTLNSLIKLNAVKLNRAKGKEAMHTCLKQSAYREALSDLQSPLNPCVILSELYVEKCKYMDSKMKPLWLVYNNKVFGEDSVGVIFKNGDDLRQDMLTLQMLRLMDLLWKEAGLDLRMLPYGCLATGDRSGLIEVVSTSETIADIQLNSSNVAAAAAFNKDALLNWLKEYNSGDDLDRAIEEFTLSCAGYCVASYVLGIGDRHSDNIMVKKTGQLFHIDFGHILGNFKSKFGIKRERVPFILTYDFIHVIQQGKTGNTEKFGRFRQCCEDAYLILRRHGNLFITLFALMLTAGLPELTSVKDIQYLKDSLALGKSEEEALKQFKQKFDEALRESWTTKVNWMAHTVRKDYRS
# [9] = Oral bioavailability in rat; format: ADME, organism-based; conditions: in vivo
# [10] = Half life in iv or po dosed rat; format: ADME, organism-based; conditions: in vivo
# [11] = Volume of distribution at steady state in iv or po dosed rat; format: ADME, organism-based; conditions: in vivo, read-out: Vdss
# [12] = molecular target: Phosphatidylinositol 4,5-bisphosphate 3-kinase catalytic subunit gamma isoform (Homo sapiens, UniProt P48736); test: Inhibition of recombinant human His6-tagged PI3Kgamma (144 to 1102 residues) using DiC8-PIP2 as substrate preincubated for 15 mins followed by substrate addition measured after 60 mins by ADP-Glo assay
# Phosphatidylinositol 4,5-bisphosphate 3-kinase catalytic subunit gamma isoform, sequence (P48736 whole entry, the tested form may be a part, canonical isoform): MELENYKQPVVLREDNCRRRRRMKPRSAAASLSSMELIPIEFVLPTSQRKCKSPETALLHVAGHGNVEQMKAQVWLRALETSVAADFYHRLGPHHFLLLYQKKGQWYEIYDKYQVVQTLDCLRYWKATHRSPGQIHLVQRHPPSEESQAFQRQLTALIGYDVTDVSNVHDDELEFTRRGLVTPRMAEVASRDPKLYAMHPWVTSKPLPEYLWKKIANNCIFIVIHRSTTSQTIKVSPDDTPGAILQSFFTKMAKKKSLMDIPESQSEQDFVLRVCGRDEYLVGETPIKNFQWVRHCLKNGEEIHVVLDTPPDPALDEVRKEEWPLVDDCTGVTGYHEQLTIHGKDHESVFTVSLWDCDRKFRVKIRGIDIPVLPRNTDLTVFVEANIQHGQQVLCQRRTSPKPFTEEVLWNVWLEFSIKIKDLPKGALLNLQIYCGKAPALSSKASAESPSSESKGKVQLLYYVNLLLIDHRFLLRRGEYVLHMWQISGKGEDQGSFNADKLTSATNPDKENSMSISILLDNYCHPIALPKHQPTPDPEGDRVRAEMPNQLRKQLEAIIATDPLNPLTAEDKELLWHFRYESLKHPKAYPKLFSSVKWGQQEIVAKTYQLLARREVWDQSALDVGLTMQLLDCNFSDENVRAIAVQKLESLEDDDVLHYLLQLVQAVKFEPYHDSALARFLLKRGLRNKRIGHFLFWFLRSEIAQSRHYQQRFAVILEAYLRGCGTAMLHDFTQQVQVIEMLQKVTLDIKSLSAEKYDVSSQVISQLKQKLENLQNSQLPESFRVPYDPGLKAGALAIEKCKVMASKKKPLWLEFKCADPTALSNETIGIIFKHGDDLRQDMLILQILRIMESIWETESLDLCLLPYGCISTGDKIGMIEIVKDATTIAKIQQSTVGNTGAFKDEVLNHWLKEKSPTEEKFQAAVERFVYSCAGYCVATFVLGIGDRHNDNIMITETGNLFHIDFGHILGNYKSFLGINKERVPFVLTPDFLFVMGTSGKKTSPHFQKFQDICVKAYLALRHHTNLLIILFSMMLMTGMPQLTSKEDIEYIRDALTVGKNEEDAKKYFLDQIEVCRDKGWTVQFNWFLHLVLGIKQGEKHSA
# [13] = molecular target: PI3-kinase p110-delta/p85-alpha (Homo sapiens, UniProt O00329); test: Inhibition of recombinant human His6-tagged PI3K p110delta/p85alpha using DiC8-PIP2 as substrate preincubated for 15 mins followed by substrate addition measured after 60 mins by ADP-Glo assay; format: protein-complex assay
# PI3-kinase p110-delta/p85-alpha, sequence (P27986 whole entry, one chain of several): as the sequence (P27986 whole entry) above
SMILES,IC50 [1] [nM],half-life [2] [h],pKa [3],remaining at 24 h [4] [%],pKa [5],clearance [6] [mL/min/kg],logD [7],IC50 [8] [nM],inhibition (Mus musculus),inhibition at 11 µM (hERG (KCNH2)) [%],IC50 (PI3K p110 beta/p85 alpha) [nM],bioavailability [9] [%],half-life [10] [h],Vd [11] [L/kg],IC50 [12] [nM],IC50 [13] [nM]
Cc1csc2cc([C@H](C)Nc3ncnc(N)c3C#N)c(-c3cccc(CN4CCC(N(C)CC(C)C)CC4)c3)c(=O)n12,≥ 631,9.9,9.7,2.8,6.8,150,1.7,1.26,Dose-dependent effect,< 20,79.4,< 1,11,88,≥ 200,0.631
Cc1csc2cc([C@H](C)Nc3ncnc(N)c3C#N)c(-c3cccc(CN4CCC(N(C)C)CC4)c3)c(=O)n12,≥ 631,23.2,9.5,4.8,6.5,57,0.5,10,Dose-dependent effect,< 20,63.1,< 1,12,12,≥ 200,0.501
